The values below are quoted from earlier work in patent publication US12156855B2, “Infusion dosage form of norepinephrine” (Sun Pharmaceutical Industries Limited, priority 2019, dated 2024).

As for `O=Cc1ccc(O)c(O)c1` [3,4 dihydroxybenzaldehyde, 3,4-dihydroxybenzaldehyde], the reported toxicity result (heart, ZHANG Cui-ying et al) is “toxic to the heart”. As for `Oc1cc2c(cc1O)C(O)CNC2` (centres unmarked) [impurity of Formula I, 1,2,3,4-tetrahydroisoquinoline-4,6,7-triol], the reported pharmacological action entry (Hans Aaron Bates, J. Org. Chem. 1983) is recorded as “acts as false neurotransmitter”.
